Our source for the IC50 values is patent US20260200920A1, “SUBSTITUTED AMINOPYRIDINE COMPOUNDS FOR USE AS AKT1 INHIBITORS” (Atavistik Bio, Inc., priority 2023, published 2026).

Test [1] has as its target T1, human recombinant kinase full-length wildtype AKT1 (Homo sapiens, UniProt P31749).
T1 construct: Purified human recombinant kinase full-length wildtype AKT1 was expressed in insect cells; made in house; host or cells: insect cells
Description: AKT1 kinase assay (wildtype, TR-FRET, Lance). The test is classed as biochemical. The settings on record: 0.6 nM wildtype AKT1, 50 nM Ulight-CREBtide, either 50 μM ATP or 2 mM ATP, 60 min at RT. An outline of the steps: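 TR-FRET 665/620 ratio quantified phospho-CREBtide formed by PDPK1-activated full-length human AKT1 (0.6 nM, insect-cell-derived) over 60 min at RT with 50 nM ULight-CREBtide and either 50 μM or 2 mM ATP. Compounds were preincubated 15 min with enzyme; IC50 came from 4-parameter fits of 10-point duplicates.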

Test [2] deals with T2, human recombinant kinase full-length AKT1 E17K (Homo sapiens, UniProt P31749, E17K).
T2 construct: Purified human recombinant kinase full-length AKT1 E17K was expressed in insect cells; made in house; host or cells: insect cells
T2 sequence (P31749 whole entry E17K): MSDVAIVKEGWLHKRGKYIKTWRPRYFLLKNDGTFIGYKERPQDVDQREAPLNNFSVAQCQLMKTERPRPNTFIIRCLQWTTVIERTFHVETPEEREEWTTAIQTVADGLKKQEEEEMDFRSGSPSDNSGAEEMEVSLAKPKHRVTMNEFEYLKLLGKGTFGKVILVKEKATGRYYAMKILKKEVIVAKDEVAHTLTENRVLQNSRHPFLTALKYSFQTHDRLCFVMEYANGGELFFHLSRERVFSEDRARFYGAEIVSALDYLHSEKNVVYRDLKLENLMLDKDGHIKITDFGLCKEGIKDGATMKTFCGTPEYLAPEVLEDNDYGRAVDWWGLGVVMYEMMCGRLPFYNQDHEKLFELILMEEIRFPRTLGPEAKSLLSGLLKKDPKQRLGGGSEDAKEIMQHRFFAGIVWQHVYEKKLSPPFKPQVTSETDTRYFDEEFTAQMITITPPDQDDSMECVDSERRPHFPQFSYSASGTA
In words: AKT1 E17K kinase assay (TR-FRET, Lance). Type of test: biochemical. Particulars: 0.6 nM AKT1 E17K, 50 nM Ulight-CREBtide, either 50 μM ATP or 2 mM ATP, 60 min at RT. In a few lines:
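IC50 came from a 10-point, 4-parameter fit of the 665/620 TR-FRET ratio read with Eu-anti-phospho-CREB (Ser133). Reaction at RT for 60 min after 15 min compound preincubation, using 0.6 nM PDPK1-activated full-length AKT1 E17K (insect-cell), 50 nM Ulight-CREBtide, ATP at 50 μM or 2 mM, HEPES pH 7.5, 1% DMSO.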

T1 sequence (P31749 whole entry): as the sequence (P31749 whole entry E17K) above, with K17E counted along it

With `Cc1nc(NC[C@H]2CC[C@H](C(=O)O)CC2)ccc1-n1c(-c2cccnc2N)nc2ccc(-c3ccccc3)nc21` [Compound I-131, (1r,4r)-4-(((5-(2-(2-aminopyridin-3-yl)-5-phenyl-3H-imidazo[4,5-b]pyridin-3-yl)-6-methylpyridin-2-yl)amino)methyl)cyclohexane-1-carboxylic acid], the IC50 in test [1] was less than 20 µM; in test [2] it was 0.5 to 2 µM.

Turning to `CN(Cc1ccc(-n2c(-c3cccnc3N)nc3ccc(-c4ccccc4)nc32)cc1)[C@H]1CC[C@H](C(=O)O)CC1` [Compound I-96, (1r,4r)-4-((4-(2-(2-aminopyridin-3-yl)-5-phenyl-3H-imidazo[4,5-b]pyridin-3-yl)benzyl)(methyl)amino)cyclohexane-1-carboxylic acid], the figures for the IC50 in test [1] and in test [2] were less than 20 µM and less than 0.5 µM, respectively.

In the case of `Nc1ncccc1-c1nc2ccc(-c3ccccc3)cc2n1-c1ccc(NC(=O)[C@H]2CC[C@H](C(=O)O)CC2)nc1` [Compound I-32, (1r,4r)-4-((5-(2-(2-aminopyridin-3-yl)-6-phenyl-1H-benzo[d]imidazol-1-yl)pyridin-2-yl)carbamoyl)cyclohexane-1-carboxylic acid], the IC50 is less than 20 µM in test [1] and 0.5 to 2 µM in test [2].

Turning to `CC1(C)C[C@H](C(=O)O)CC[C@@H]1CN1CC(c2ccc(-n3c(-c4cccnc4N)nc4ccc(-c5ccccc5)nc43)cc2)C1` (stereo in doubt) [Compound I-144], the IC50 in test [1] is less than 20 µM; in test [2], less than 0.5 µM.

As to `C[C@]1(C(=O)O)CC[C@H](CN2CC(c3ccc(-n4c(-c5cccnc5N)nc5ccc(-c6ccccc6)nc54)cc3)C2)CC1` [Compound I-138, (1r,4r)-4-((3-(4-(2-(2-aminopyridin-3-yl)-5-phenyl-3H-imidazo[4,5-b]pyridin-3-yl)phenyl)azetidin-1-yl)methyl)-1-methylcyclohexane-1-carboxylic acid], the IC50 in test [1] is less than 20 µM; in test [2], less than 0.5 µM.

As for `NC(=O)C1CCC(CN2CC(c3ccc(-n4c(-c5cccnc5N)nc5ccc(-c6ccccc6)nc54)cc3)C2)CC1` (stereo not shown) [Compound I-140, 4-((3-(4-(2-(2-aminopyridin-3-yl)-5-phenyl-3H-imidazo[4,5-b]pyridin-3-yl)phenyl)azetidin-1-yl)methyl)cyclohexane-1-carboxamide], the IC50 was less than 20 µM in test [1] and 0.5 to 2 µM in test [2].

For the compound `CC(C)CN(Cc1ccc(-n2c(-c3cccnc3N)nc3ccc(-c4ccccc4)nc32)cc1)[C@H]1CC[C@H](C(=O)O)CC1` [Compound I-166], the IC50 in test [1] is less than 20 µM; in test [2], no less than 2 µM.

As to `Nc1ncccc1-c1nc2ccc(-c3ccccc3F)nc2n1-c1ccc([C@H]2CCN(C[C@H]3CC[C@H](C(=O)O)CC3)C2)cc1` (single isomer, unassigned) [Compound I-230], the IC50 in test [1] is less than 20 µM; in test [2], 0.5 to 2 µM.

On to `CN(Cc1ccc(-n2c(-c3cccnc3N)nc3ccc(-c4ccccc4)nc32)cc1)[C@H]1CC[C@H](CC(=O)O)CC1` [Compound I-169], for which the IC50 in test [1] is less than 20 µM; in test [2], less than 0.5 µM.

As for `CC(c1ccc(-n2c(-c3cccnc3N)nc3ccc(-c4ccccc4)nc32)cc1)N1CCCC(C(=O)O)C1` (stereo not shown) [Compound I-83, 1-(1-(4-(2-(2-aminopyridin-3-yl)-5-phenyl-3H-imidazo[4,5-b]pyridin-3-yl)phenyl)ethyl)piperidine-3-carboxylic acid], the IC50 was less than 20 µM in test [1] and no less than 2 µM in test [2].

On to `Nc1ncccc1-c1nc2ccc(-c3ccccc3)nc2n1-c1ccc(NC(=O)C2CCC(C(=O)O)C2)nc1` (stereo not shown) [Compound I-8, 3-((5-(2-(2-aminopyridin-3-yl)-5-phenyl-3H-imidazo[4,5-b]pyridin-3-yl)pyridin-2-yl)carbamoyl)cyclopentane-1-carboxylic acid], for which the values for the IC50 in test [1] and in test [2] were less than 20 µM and 0.5 to 2 µM, respectively.
